# How the values were obtained:
# [1] = system: transduced T cells (human PBMCs); experiment: IL-6 ELISA as indicator of MC activity in transduced T cells; format: cell-based
# [2] = system: iC9 T cells (pBP0220, GFP-Fluc); experiment: In vivo apoptotic activation in NSG mice, iC9 T cells (IVIS imaging, spleen FACS); parameters: species or system mouse
# Procedure: PBMCs from donor 676 were activated and co-transduced with one of the off-switches and GFP-Fluc retroviruses. Eleven days after transduction, cells were analyzed for transduction efficiency with GFP and anti-CD3/anti-CD19 antibodies (FIG. 109A). […] The CD19^+ MFI for the different T cell populations were: iC9=15.07, iRC9=14.38, and iRmC9=13.39. The cells were collected, counted, washed, and resuspended at 1×10^6 cells in 100 μl PBS for each tail vein mouse injection (Table 10) (time=−18 hr). […] IVIS imaging was performed at −14, 0, 5, 24 and 29 hours. Mice were sacrificed and spleens were collected for FACS analysis with hCD3, hCD19 and mCD45 antibodies. […] The higher percentage of remaining iRmC9 T cells observed may be due to an artifact of normalizing the no drug group.
# PBMCs from donor 676 were activated and co-transduced with retroviruses encoding the pBP0220, 1310, 1327 vectors and the GFP-Fluc plasmid. (FIG. 109A) Eleven days post transduction, the cells were analyzed for CD19 and GFP transduction efficiency prior to injection into mice. (FIGS. 109B & C) NSG mice were injected i.v. with 107 T cells co-transduced with GFP-Fluc per mouse and suicide drugs were injected i.p. the next day. Bioluminescence of cells was assessed at −14, 0, 5, 24, and 29 hours post-drug administration. […]
# CD123+ THP-1 tumor cells = experiment: NSG tumor xenograft model, THP-1-EGFPluc, iMC-CD123.ζ-modified T cells with Rim; format: in vivo, mouse; details: costimulation by systemic rimiducid administration (1 mg/kg i.p. days 0 and 15)
# Procedure: Animal experiments: In vivo efficacy of iMC-CD123.ζ-modified T cells was assessed using an immune-deficient NSG tumor xenograft model. One million EGFPluc-expressing CD123^+ THP-1 tumor cells were injected i.v. into the animals, followed by a single i.v. injection on day 7 with varying non-transduced or iMC-CD123.ζ-modified T cells. Groups receiving CAR-T cells subsequently received i.p. injections of Rim (1 mg/kg) or vehicle only on days 0 and 15 post-T cell injection. Animals were evaluated for THP-1-EGFPluc tumor burden and weight change on a weekly basis using IVIS bioluminescent imaging (BLI) and for T cell persistence by flow cytometry and qPCR at day 30 post-T cell injection.
# FIG. 114. (A) PBMCs were activated and transduced with retrovirus including the CD123 iMC-CARζ vector. Twelve days after transduction, CAR expression was determined using anti-Q-bend10 antibody before injection into mice. […] (C) THP1-GFP.Fluc growth was measured using IVIS bioluminescence. (D, E) On day 30, mice were sacrificed and spleens were analyzed for the presence of CAR-T cells by flow cytometry and vector copy number assay.
# (B) On day 29, mice were sacrificed and spleens were analyzed for the presence of CAR-T cells by vector copy number assay.
# [3] = system: SLL-peptide pulsed T2 cells; experiment: IL-2 secretion of iMC-PRAME TCR T cells with SLL-peptide pulsed T2 cells; format: cell-based; details: FIG. 117D
compound,measurement,setting,value
CC[C@H](C(=O)N1CCCC[C@H]1C(=O)O[C@H](CCc1ccc(OC)c(OC)c1)c1cccc(OCC(=O)NCCNC(=O)COc2cccc([C@@H](CCc3ccc(OC)c(OC)c3)OC(=O)[C@@H]3CCCCN3C(=O)[C@@H](CC)c3cc(OC)c(OC)c(OC)c3)c2)c1)c1cc(OC)c(OC)c(OC)c1 [rimiducid],MC activity (secreted IL-6) in iMC+CARζ-T cells,[1]; 24 hours,stimulated strongly
same,MC activity (secreted IL-6) in MC-rap-T cells,"[1]; pBP1440, 24 hours",not stimulated
same,iC9 T cells remained in splenocytes compared to no drug- or rapamycin-treated groups,"[2]; 5 mg/kg rimiducid i.p., spleen FACS, FIG. 109D",~20%
same,removal of iC9 T cells / bioluminescence signal (IVIS imaging),"[2]; NSG mice, 5 mg/kg rimiducid or 10 mg/kg rapamycin i.p., FIGS. 109B & C",induced significant removal
same,eradication of CD123+ leukemic cells by iMC-CARζ T cells,CD123+ THP-1 tumor cells,efficiently eradicated
same,"IL-2 secretion, PRAME TCR with iMC",[3],maximal IL-2 secretion

# Reference: US20230065562A1, “DUAL CONTROLS FOR THERAPEUTIC CELL ACTIVATION OR ELIMINATION” (Bellicum Pharmaceuticals, Inc., priority 2015, published 2023)
